Measurements: the NIST ThermoML archive (doi:10.1021/je8009978)
± gives the expanded uncertainty stated by the source.

Legend:
[1] = refractive index (Na D-line) (dimensionless); details: 298.15 K; 101.33 kPa; Liquid; Standard Abbe refractometry
[2] = Liquid

`CC(C)CO` [2-methyl-1-propanol] gave a refractive index [1] of 1.3939 ± 0.0004, a mass density ([2]; 298.15 K, 101.33 kPa, Vibrating tube method) of 797.6 ± 0.3 kg/m3 and a Normal boiling temperature ([2]; Closed cell (Static) method) of 107.83 ± 0.2 °C.
